pIC50: −log10 of the molar value.

From ChEMBL document CHEMBL6182898, “Design, synthesis and bioevaluation of novel hydrazide derivatives as enhancers of immunotherapy and DNA-damage response in antitumor therapy” (Eur J Med Chem, 2025) come the findings set out here.

One data set deals with SK-OV-3. The experiment in a line: Antiproliferative activity against human SK-OV-3 cells incubated for 72 hrs by MTT assay. As to conditions: SK-OV-3, 72 h. It is filed as functional, cell-based. (In general: Formazan colour is commonly taken as a measure of viable cells.)
As usually defined, the pIC50 is the IC50 on a negative log10 scale, so that one unit is a factor of ten. In the case of `CCCNNC(=O)CCCCCNC(=O)c1cnc(-c2ccc(Oc3ccccc3)cc2)s1`, the pIC50 was 5.35.
Still for that read-out and setting: as for `CCCNNC(=O)c1ccc(NC(=O)c2cnc(-c3cc4ccc5cccc6ccc(c3)c4c56)s2)cc1`, the figure is 5.28; as for `CCCNNC(=O)CCCCCCNC(=O)c1cnc(-c2ccc(F)cc2F)s1`, 5.10.
Still for that read-out and setting: the value for `CCCNNC(=O)CCCCCCNC(=O)c1cnc(-c2ccc(Oc3ccccc3)cc2)s1` was 5.06.

Another data set deals with Histone deacetylase 1 (Homo sapiens, UniProt Q13547). The experiment in a line: Inhibition of HDAC1 (unknown origin).
Chain of Histone deacetylase 1 (Q13547 whole entry): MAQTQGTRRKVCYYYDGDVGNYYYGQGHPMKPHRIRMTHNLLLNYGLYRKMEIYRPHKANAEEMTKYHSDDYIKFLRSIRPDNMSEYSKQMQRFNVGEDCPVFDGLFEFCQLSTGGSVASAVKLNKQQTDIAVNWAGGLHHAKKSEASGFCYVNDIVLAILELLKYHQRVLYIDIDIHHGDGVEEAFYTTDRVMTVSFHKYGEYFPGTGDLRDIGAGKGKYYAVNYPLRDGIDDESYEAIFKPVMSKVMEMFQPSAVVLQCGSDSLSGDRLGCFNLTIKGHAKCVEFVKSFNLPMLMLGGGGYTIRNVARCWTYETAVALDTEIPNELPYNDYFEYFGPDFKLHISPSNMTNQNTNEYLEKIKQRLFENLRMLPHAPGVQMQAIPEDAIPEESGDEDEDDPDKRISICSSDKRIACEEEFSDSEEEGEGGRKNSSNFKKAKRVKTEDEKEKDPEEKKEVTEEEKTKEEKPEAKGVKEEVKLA
Conditions: not given
For the compound `CCCNNC(=O)CCCCCNC(=O)c1cnc(-c2ccc(Oc3ccccc3)cc2)s1`, the pIC50 is below 5.30.
Same read-out and setting: as for `CCCNNC(=O)c1ccc(NC(=O)c2cnc(-c3cc4ccc5cccc6ccc(c3)c4c56)s2)cc1`, the figure is 5.87.
The same measure, in the same setting: the value for `CCCNNC(=O)CCCCCCNC(=O)c1cnc(-c2ccc(F)cc2F)s1` was 6.05; that for `CCCNNC(=O)CCCCCCNC(=O)c1cnc(-c2ccc(Oc3ccccc3)cc2)s1` was below 5.30.

The next data set addresses T1, Protein deacetylase HDAC6 (Homo sapiens, UniProt Q9UBN7).
T1 sequence (Q9UBN7 whole entry): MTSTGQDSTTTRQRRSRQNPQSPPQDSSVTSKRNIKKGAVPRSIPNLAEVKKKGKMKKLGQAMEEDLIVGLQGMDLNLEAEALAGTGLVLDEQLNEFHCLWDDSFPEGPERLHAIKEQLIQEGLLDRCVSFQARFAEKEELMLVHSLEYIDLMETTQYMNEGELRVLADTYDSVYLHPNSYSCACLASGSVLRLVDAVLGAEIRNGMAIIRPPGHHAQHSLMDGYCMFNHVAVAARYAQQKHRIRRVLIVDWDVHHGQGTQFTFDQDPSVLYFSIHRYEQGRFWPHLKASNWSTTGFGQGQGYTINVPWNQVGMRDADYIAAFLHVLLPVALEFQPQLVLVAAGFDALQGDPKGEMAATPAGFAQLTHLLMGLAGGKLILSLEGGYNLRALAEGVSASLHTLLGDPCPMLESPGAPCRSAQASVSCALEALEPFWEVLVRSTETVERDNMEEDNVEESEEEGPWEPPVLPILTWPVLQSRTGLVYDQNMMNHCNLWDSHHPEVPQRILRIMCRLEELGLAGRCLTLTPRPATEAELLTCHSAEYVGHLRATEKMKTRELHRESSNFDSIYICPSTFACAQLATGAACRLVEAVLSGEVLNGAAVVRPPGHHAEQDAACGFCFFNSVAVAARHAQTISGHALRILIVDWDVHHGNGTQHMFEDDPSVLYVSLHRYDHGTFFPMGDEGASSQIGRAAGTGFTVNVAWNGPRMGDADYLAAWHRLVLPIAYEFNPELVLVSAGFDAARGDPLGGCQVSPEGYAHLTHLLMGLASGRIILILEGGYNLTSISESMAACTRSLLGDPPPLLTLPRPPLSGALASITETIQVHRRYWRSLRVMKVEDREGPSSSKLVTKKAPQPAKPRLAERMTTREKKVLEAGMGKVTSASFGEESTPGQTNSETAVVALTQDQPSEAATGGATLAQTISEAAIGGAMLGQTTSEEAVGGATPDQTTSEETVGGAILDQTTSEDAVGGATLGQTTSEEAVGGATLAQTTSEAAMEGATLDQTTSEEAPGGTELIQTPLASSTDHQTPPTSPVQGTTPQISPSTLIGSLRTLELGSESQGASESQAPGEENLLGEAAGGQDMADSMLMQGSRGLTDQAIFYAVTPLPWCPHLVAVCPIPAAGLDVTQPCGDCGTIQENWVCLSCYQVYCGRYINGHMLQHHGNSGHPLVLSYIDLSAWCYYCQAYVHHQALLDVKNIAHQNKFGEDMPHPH
The data set can be described thus: Inhibition of HDAC6 (unknown origin).
Conditions: not given
As to `CCCNNC(=O)CCCCCNC(=O)c1cnc(-c2ccc(Oc3ccccc3)cc2)s1`, the pIC50 was below 5.00.
On the same count and under the same terms, the value for `CCCNNC(=O)c1ccc(NC(=O)c2cnc(-c3cc4ccc5cccc6ccc(c3)c4c56)s2)cc1` was below 5.00; that for `CCCNNC(=O)CCCCCCNC(=O)c1cnc(-c2ccc(F)cc2F)s1` was below 5.00.
Same read-out and setting: as for `CCCNNC(=O)CCCCCCNC(=O)c1cnc(-c2ccc(Oc3ccccc3)cc2)s1`, the figure is below 5.00.

For another data set, the system named is B16-F10. The experiment in a line: cells. It is filed as functional. Particulars: Mus musculus, time 72 hrs.
Usually inhibition stands for the percentage by which the read-out fell short of the control. Read a low inhibition as a weak effect. Take `CCCNNC(=O)CCCCCNC(=O)c1cnc(-c2ccc(Oc3ccccc3)cc2)s1`: the inhibition at 10 µM is below 50%.
Consider `CCCNNC(=O)c1ccc(NC(=O)c2cnc(-c3cc4ccc5cccc6ccc(c3)c4c56)s2)cc1`, for which the inhibition at 10 µM was 61.7%.
In turn, `CCCNNC(=O)CCCCCCNC(=O)c1cnc(-c2ccc(F)cc2F)s1` returned an inhibition at 10 µM of 56%.
Regarding `CCCNNC(=O)CCCCCCNC(=O)c1cnc(-c2ccc(Oc3ccccc3)cc2)s1`, the inhibition at 10 µM came out at 58%.

Another data set deals with K562. The data set can be described thus: cells. It is filed as functional. Particulars: Homo sapiens, time 72 hrs.
Consider `CCCNNC(=O)CCCCCNC(=O)c1cnc(-c2ccc(Oc3ccccc3)cc2)s1`, for which at 10 µM the inhibition was 73.1%.
Same read-out and setting: the value for `CCCNNC(=O)c1ccc(NC(=O)c2cnc(-c3cc4ccc5cccc6ccc(c3)c4c56)s2)cc1` was below 50%; that for `CCCNNC(=O)CCCCCCNC(=O)c1cnc(-c2ccc(F)cc2F)s1` was 70.5%.
`CCCNNC(=O)CCCCCCNC(=O)c1cnc(-c2ccc(Oc3ccccc3)cc2)s1` came in with an inhibition at 10 µM below 50%.

Test system in a further data set: not listed separately
The experiment in a line: Antiproliferative activity against human HK-2 cells incubated for 72 hrs by MTT assay.
Conditions: not given
As usually defined, the IC50 is the point on the concentration scale where inhibition reaches its midpoint. Regarding `CCCNNC(=O)CCCCCNC(=O)c1cnc(-c2ccc(Oc3ccccc3)cc2)s1`, the IC50 at 72 h was found to be 10.8 µM.
Same read-out and setting: the value for `CCCNNC(=O)c1ccc(NC(=O)c2cnc(-c3cc4ccc5cccc6ccc(c3)c4c56)s2)cc1` was 11.2 µM.
On the same count and under the same terms, the value for `CCCNNC(=O)CCCCCCNC(=O)c1cnc(-c2ccc(F)cc2F)s1` was 12.2 µM; that for `CCCNNC(=O)CCCCCCNC(=O)c1cnc(-c2ccc(Oc3ccccc3)cc2)s1` was 14.1 µM.

The subject of a further data set is HCT-116. The data set can be described thus: cells. Particulars: Homo sapiens, time 72 hrs. It is filed as functional.
Turning to `CCCNNC(=O)CCCCCNC(=O)c1cnc(-c2ccc(Oc3ccccc3)cc2)s1`, the inhibition at 10 µM was 82.6%.
The same measure, in the same setting: the value for `CCCNNC(=O)c1ccc(NC(=O)c2cnc(-c3cc4ccc5cccc6ccc(c3)c4c56)s2)cc1` was 69.3%.
Take `CCCNNC(=O)CCCCCCNC(=O)c1cnc(-c2ccc(F)cc2F)s1`: the inhibition at 10 µM stood at 79.7%.
`CCCNNC(=O)CCCCCCNC(=O)c1cnc(-c2ccc(Oc3ccccc3)cc2)s1` showed an inhibition at 10 µM of 73.1%.

The subject of another data set is 4T1. The experiment in a line: cells. It is filed as functional. As to conditions: Mus musculus, time 72 hrs.
`CCCNNC(=O)CCCCCNC(=O)c1cnc(-c2ccc(Oc3ccccc3)cc2)s1` showed an inhibition at 10 µM of 33.8%.
`CCCNNC(=O)c1ccc(NC(=O)c2cnc(-c3cc4ccc5cccc6ccc(c3)c4c56)s2)cc1` yielded an inhibition at 10 µM below 20%.
As to `CCCNNC(=O)CCCCCCNC(=O)c1cnc(-c2ccc(F)cc2F)s1`, the inhibition at 10 µM is below 20%.
On the same count and under the same terms, as for `CCCNNC(=O)CCCCCCNC(=O)c1cnc(-c2ccc(Oc3ccccc3)cc2)s1`, the figure is 40.8%.

A further data set has as its system K562. The data set can be described thus: Antiproliferative activity against human K562 cells incubated for 72 hrs by CCK8 assay. As to conditions: K562, 72 h. It is filed as functional, cell-based.
As for `CCCNNC(=O)CCCCCNC(=O)c1cnc(-c2ccc(Oc3ccccc3)cc2)s1`, the pIC50 was 5.11.
In turn, `CCCNNC(=O)c1ccc(NC(=O)c2cnc(-c3cc4ccc5cccc6ccc(c3)c4c56)s2)cc1` showed a pIC50 of 5.22.
Consider `CCCNNC(=O)CCCCCCNC(=O)c1cnc(-c2ccc(F)cc2F)s1`, for which the pIC50 is 5.25.
The same measure, in the same setting: as for `CCCNNC(=O)CCCCCCNC(=O)c1cnc(-c2ccc(Oc3ccccc3)cc2)s1`, the figure is 5.38.

The next data set has as its system SK-OV-3. The data set can be described thus: cells. In kind it is functional. Particulars: Homo sapiens, time 72 hrs.
With `CCCNNC(=O)CCCCCNC(=O)c1cnc(-c2ccc(Oc3ccccc3)cc2)s1`, at 10 µM the inhibition was 68.6%.
Same read-out and setting: the value for `CCCNNC(=O)c1ccc(NC(=O)c2cnc(-c3cc4ccc5cccc6ccc(c3)c4c56)s2)cc1` was 77.5%.
Same read-out and setting: the value for `CCCNNC(=O)CCCCCCNC(=O)c1cnc(-c2ccc(F)cc2F)s1` was 82.1%.
On the same count and under the same terms, as for `CCCNNC(=O)CCCCCCNC(=O)c1cnc(-c2ccc(Oc3ccccc3)cc2)s1`, the figure is 76%.

The subject of the next data set is HCT-116. The experiment in a line: Antiproliferative activity against human HCT-116 cells incubated for 72 hrs by MTT assay. It is filed as functional, cell-based. As to conditions: HCT-116, 72 h.
`CCCNNC(=O)CCCCCNC(=O)c1cnc(-c2ccc(Oc3ccccc3)cc2)s1` showed a pIC50 of 5.47.
On the same count and under the same terms, as for `CCCNNC(=O)c1ccc(NC(=O)c2cnc(-c3cc4ccc5cccc6ccc(c3)c4c56)s2)cc1`, the figure is 5.07.
The same measure, in the same setting: the value for `CCCNNC(=O)CCCCCCNC(=O)c1cnc(-c2ccc(F)cc2F)s1` was 5.32; that for `CCCNNC(=O)CCCCCCNC(=O)c1cnc(-c2ccc(Oc3ccccc3)cc2)s1` was 5.97.

A further data set concerns 4T1. The experiment in a line: Antiproliferative activity against mouse 4T1 cells incubated for 72 hrs by MTT assay. In kind it is functional, cell-based. As to conditions: 4T1, 72 h.
With `CCCNNC(=O)CCCCCNC(=O)c1cnc(-c2ccc(Oc3ccccc3)cc2)s1`, the pIC50 is 4.98.
The same measure, in the same setting: as for `CCCNNC(=O)c1ccc(NC(=O)c2cnc(-c3cc4ccc5cccc6ccc(c3)c4c56)s2)cc1`, the figure is 5.10; as for `CCCNNC(=O)CCCCCCNC(=O)c1cnc(-c2ccc(F)cc2F)s1`, 4.89; as for `CCCNNC(=O)CCCCCCNC(=O)c1cnc(-c2ccc(Oc3ccccc3)cc2)s1`, 4.93.

The test system of another data set is B16-F10. The experiment in a line: Antiproliferative activity against mouse B16-F10 cells incubated for 72 hrs by MTT assay. In kind it is functional, cell-based. Particulars: B16-F10, 72 h.
For `CCCNNC(=O)CCCCCNC(=O)c1cnc(-c2ccc(Oc3ccccc3)cc2)s1`, the pIC50 is 4.96.
Consider `CCCNNC(=O)c1ccc(NC(=O)c2cnc(-c3cc4ccc5cccc6ccc(c3)c4c56)s2)cc1`, for which the pIC50 is 4.88.
On the same count and under the same terms, the value for `CCCNNC(=O)CCCCCCNC(=O)c1cnc(-c2ccc(F)cc2F)s1` was 5.32; that for `CCCNNC(=O)CCCCCCNC(=O)c1cnc(-c2ccc(Oc3ccccc3)cc2)s1` was 4.83.

The target of the next data set is Histone deacetylase 3 (Homo sapiens, UniProt O15379). The experiment in a line: Inhibition of HDAC3 (unknown origin).
Chain of Histone deacetylase 3 (O15379 whole entry): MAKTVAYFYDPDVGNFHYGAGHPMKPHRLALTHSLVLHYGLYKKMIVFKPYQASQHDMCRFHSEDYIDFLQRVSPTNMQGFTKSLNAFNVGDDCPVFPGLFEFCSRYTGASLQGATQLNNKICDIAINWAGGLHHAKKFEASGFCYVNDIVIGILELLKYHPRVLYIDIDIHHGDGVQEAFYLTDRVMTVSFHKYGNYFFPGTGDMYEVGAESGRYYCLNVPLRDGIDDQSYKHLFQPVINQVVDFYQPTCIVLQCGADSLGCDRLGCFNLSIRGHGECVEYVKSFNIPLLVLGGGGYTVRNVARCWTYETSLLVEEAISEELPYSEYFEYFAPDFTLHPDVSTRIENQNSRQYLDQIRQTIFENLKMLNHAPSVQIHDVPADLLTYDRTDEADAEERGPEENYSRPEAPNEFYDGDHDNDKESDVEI
Conditions: not given
As for `CCCNNC(=O)CCCCCNC(=O)c1cnc(-c2ccc(Oc3ccccc3)cc2)s1`, the pIC50 was 5.80.
On the same count and under the same terms, the value for `CCCNNC(=O)c1ccc(NC(=O)c2cnc(-c3cc4ccc5cccc6ccc(c3)c4c56)s2)cc1` was 6.01; that for `CCCNNC(=O)CCCCCCNC(=O)c1cnc(-c2ccc(F)cc2F)s1` was 6.14; that for `CCCNNC(=O)CCCCCCNC(=O)c1cnc(-c2ccc(Oc3ccccc3)cc2)s1` was 5.73.

A further data set deals with T2, Histone deacetylase 8 (Homo sapiens, UniProt Q9BY41).
T2 sequence (Q9BY41 whole entry): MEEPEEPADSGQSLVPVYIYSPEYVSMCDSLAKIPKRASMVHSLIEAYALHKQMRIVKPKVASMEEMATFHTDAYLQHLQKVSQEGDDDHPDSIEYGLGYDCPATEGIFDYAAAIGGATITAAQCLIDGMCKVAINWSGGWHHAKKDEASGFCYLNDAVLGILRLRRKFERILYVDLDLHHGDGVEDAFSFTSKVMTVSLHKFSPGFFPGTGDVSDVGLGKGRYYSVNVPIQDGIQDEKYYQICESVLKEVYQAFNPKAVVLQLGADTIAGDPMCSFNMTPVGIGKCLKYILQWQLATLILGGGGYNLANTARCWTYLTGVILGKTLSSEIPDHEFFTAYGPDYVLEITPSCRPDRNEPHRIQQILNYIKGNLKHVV
The experiment in a line: Inhibition of HDAC8 (unknown origin).
Conditions: not given
`CCCNNC(=O)CCCCCNC(=O)c1cnc(-c2ccc(Oc3ccccc3)cc2)s1`: the pIC50 was below 5.00.
Still for that read-out and setting: as for `CCCNNC(=O)c1ccc(NC(=O)c2cnc(-c3cc4ccc5cccc6ccc(c3)c4c56)s2)cc1`, the figure is below 5.00.
On the same count and under the same terms, the value for `CCCNNC(=O)CCCCCCNC(=O)c1cnc(-c2ccc(F)cc2F)s1` was below 5.00.
`CCCNNC(=O)CCCCCCNC(=O)c1cnc(-c2ccc(Oc3ccccc3)cc2)s1`: the pIC50 is below 5.00.
